According to patent US7205285B2, “Acyl phosphonate inhibitors of β-lactamases” (Methylgene, Inc., priority 1997, dated 2007):

Target: T1, Enterobacter cloacae P99 β-lactamase (Enterobacter cloacae, UniProt P05364)
T1 construct: purchased Porton Down, Wiltshire, U.K
Test: not given
Type: biochemical
Settings: values in parentheses, second order rate constant for inhibition
Method: To evaluate the inhibitors and the methods of the invention, representative inhibitors preparations were tested using class A (TEM-2 plasmid TEM)) β-lactamase and class C (Enterobacter cloacae P99 β-lactamase) β-lactamases (Porton Down, Wiltshire, U.K.) as well as representative DD-peptidases/carboxydases (e.g., Streptomyces R61 DD-peptidases) as the assayed enzyme.
Steady state kinetic parameters were directly obtained for representative inhibitors with the P99 β-lactamase with TEM β-lactamase by standard methods (e.g., Wilkinson, Biochem J. 80:324–332 (1989)) from spectrophotometric initial velocity measurements. Kinetic parameters were also obtained for DD-peptidase as the assayed enzyme, according to standard methods using hyppuryl-DL-phenyl-lactate (a known DD-peptidase substrate) (e.g. Govardhan and Pratt, Biochemistry 26:3385–3395 (1987)). The concentration of stock enzyme solutions were determined spectrophotometrically (e.g., Xu, et al., Biochemistry 35:[…] (1996)).
Representative class C and a class A β-lactamases were inhibited by representative inhibitors of Formulae I and II in a time-dependent fashion as described by the relation:
Representative inhibitors of the invention having Formula I may act by forming a covalent bond between β-lactamases and the inhibitor (i.e., irreversible inhibition). This type of inhibition is therefore time dependent. It is distinguished from reversible inhibition in so far that the backward reaction is extremely slow. […] Thus, irreversible inhibition is measured by how fast the event takes place (rate constant ki). Thus, inhibitory efficiency is expressed by large ki values.
Representative inhibitors of Formula I may also act by forming a transient acyl-enzyme intermediate. Inhibition results from a slow turn over, (de-acylation) of the intermediate.
In Table 3, kcat/km values are presented in plain text, with ki values for representative inhibitors appearing in parentheses. […]

Structure (SMILES) | ki
CCCCCCP(=O)(O)OC(=O)c1ccccc1 [Compound XXII] | 0.0226(11.1 ± 0.1) s^−1 M^−1
O=C(OP(=O)(O)Oc1ccccc1)c1ccc(-c2ccccc2)cc1 [Compound XXVII] | ≤ 3 s⁻¹ M⁻¹
Cc1cccc(C)c1C(=O)OP(=O)(O)Oc1ccccc1 [Compound XXVIII] | (20.9 ± 1.5) s^−1 M^−1
O=C(OP(=O)(O)Oc1ccccc1)c1cc2ccccc2s1 [Compound XXVI] | ≤ 5 s⁻¹ M⁻¹
O=C(OP(=O)(O)c1ccc(-c2ccccc2)cc1)c1ccccc1 [Compound XXI] | 0.117(89 ± 4) s^−1 M^−1
CCCCCCOP(=O)(O)OC(=O)c1ccccc1 [Compound XVII] | 0.125(≦1) s^−1 M^−1
COc1ccccc1C(=O)OP(=O)(O)Oc1ccccc1 [Compound XXIX] | 3.6 ± 0.4 s⁻¹ M⁻¹
O=C(OP(=O)(O)Oc1ccc([N+](=O)[O-])cc1)c1ccccc1 [Compound XI] | ≤ 2 s⁻¹ M⁻¹
O=C(OP(=O)(O)Oc1ccc2ccccc2c1)c1cc2ccccc2s1 [Compound XXX] | 1813 ± 3 s⁻¹ M⁻¹
O=C(OP(=O)(O)c1cccc([N+](=O)[O-])c1)c1ccccc1 [Compound XIX] | 0.0179(65 ± 19) s^−1 M^−1
O=C(NCP(=O)(O)OC(=O)c1ccccc1)OCc1ccccc1 [XXXIII] | (5.9 ± 0.3 × 10^4) s^−1 M^−1
O=C(OP(=O)(O)c1ccc([N+](=O)[O-])cc1)c1ccccc1 [Compound XVIII] | 0.0125(25 ± 3) s^−1 M^−1
O=C(OP(=O)(O)Oc1ccc2ccccc2c1)c1ccccc1 [Compound XXXI] | ≤ 1 s⁻¹ M⁻¹
O=C(OP(=O)(O)c1ccc2ccccc2c1)c1ccccc1 [Compound XX] | 0.0551(115 ± 5) s^−1 M^−1
O=C(Cc1ccccc1)OP(=O)(O)Oc1ccccc1 [Compound X] | ≤ 0.04 s⁻¹ M⁻¹
O=C(/C=C/c1ccccc1)OP(=O)(O)Oc1ccccc1 [Compound XXV] | ≤ 1 s⁻¹ M⁻¹

Target: TEM-2 plasmid (TEM) β-lactamase (Escherichia coli, UniProt P62593, Q37K)
Test: not given
Type: biochemical
Settings: values in parentheses

Structure (SMILES) | ki
O=C(OP(=O)(O)OC(=O)c1ccccc1)c1ccccc1 [XIV, sodium dibenzoyl phosphate] | 0.120(14.3) s^−1 M^−1
O=C(NCP(=O)(O)OC(=O)c1ccccc1)OCc1ccccc1 [XXXIII] | (130 ± 8) s^−1 M^−1
O=C(OP(=O)(O)Oc1ccccc1)c1ccccc1 [XIII, sodium benzoyl phenyl phosphate] | 0.001(0.2) s^−1 M^−1

Target: T1, Enterobacter cloacae P99 β-lactamase
Test: Inhibition of P99 β-lactamase, nitrocefin assay (IC50)
Type: biochemical
Settings: nitrocefin substrate, 20 mM MOPS pH 7.50
Method: The enzyme (Enterobacter cloacae P99 β-lactamase) was dissolved to a concentration of 1 mg/mL in 20 mM MOPS buffer at pH 7.50, and then diluted 200-fold in the same buffer containing 0.1% BSA. The commercially available substrate nitrocefin was added as a 100 μM stock solution in 20 mM MOPS buffer, and inhibitors were also added as solutions in MOPS buffer. In a typical assay the following amounts were used: 300 μL of nitrocefin, 10 μL of P99 β-lactamase, x μL of inhibitor, and […] of MOPS buffer. Enzyme activity was measured at 25 EC, and the reaction was monitored spectrophotometrically at 482 nm. IC50 values were determined from the dose-response plots of the initial reaction rate vs. inhibitor concentration.

Structure (SMILES) | IC50 [µM]
O=C(OP(=O)(O)Oc1ccc([N+](=O)[O-])cc1)c1ccccc1 [Compound XI] | 39
O=C(OP(=O)(O)Oc1cccc2ccccc12)c1ccccc1 [Compound XII] | 8
O=C(Cc1ccccc1)OP(=O)(O)Oc1ccccc1 [Compound X] | 30

Tested on: Ent. Cloacae
Test: Microbiological testing: potentiation of β-lactam antibiotic
Type: cell-based
Settings: Cefoxitin, compound at 100 μg/mL
Excerpt: (§1) To test the inhibitors of the invention, a wide range of organisms are used to assess compounds according to the invention; both as antibiotics and as β-Lactamase inhibitors: Initial screening for antibiotic activity utilizes penicillin sensitive S. aureus [ATTC# 25923], ampicillin sensitive H. influenzae [ATCC#10211] and clinical laboratory isolates of ampicillin sensitive E. faecalis and H. influenzae, and non-resistant P. aeruginosa. Initial studies utilize, in microtiter wells, 1 microgram of compound in 10 microliters diluted stock solution, 41,100 CFU of bacteria in 10 microliters broth solution and 80 microliters CAMHB. The count verification well contains 10 microliters CAMHB in place of the test compound. […] Microbiological and enzymatic testing is carried on duplicate plates with negative control plates.
(§2) Compounds were tested at a concentration of 100 μg/mL.
(§3) In Table 5, the microorganism tested against is shown in italics, while the antibiotic agent used is shown in plain text. […] When determined, the number in parentheses indicates the fold reduction in the MIC of the antibiotic agent when measured in the presence of the inhibitor of the invention.

Structure (SMILES) | fold reduction in the MIC of the antibiotic agent [fold]
COP(=O)(O)OC(=O)c1ccccc1 [VIII] | 2

Same assay, conditions: Ceftriaxone, compound at 100 μg/mL

Structure (SMILES) | fold reduction in the MIC of the antibiotic agent [fold]
COP(=O)(O)OC(=O)c1ccccc1 [VIII] | 2

Tested on: Haemophilus Influenzae
Test: as above
Type: cell-based
Settings: Ticarcillin, compound at 100 μg/mL
Excerpt: as §1, §2, §3

Structure (SMILES) | fold reduction in the MIC of the antibiotic agent [fold]
COP(=O)(O)OC(=O)c1ccccc1 [VIII] | 0

Tested on: Staph. Aureaus
Test: as above
Type: cell-based
Settings: Piperacillin, compound at 100 μg/mL
Excerpt: as §1, §2, §3

fold reduction in the MIC of the antibiotic agent [fold] | Structure (SMILES)
2 | O=C1C=C(c2ccccc2)OP(=O)(O)O1 [Compound XVI]

Tested on: not listed separately
Test: Spontaneous hydrolysis in neutral aqueous solution
Type: physicochemical
Settings: 20 mM MOPS, pH 7.5, 25° C.
Method: The cyclic phosphoryl chloride (500 mg; 2.3 mmol) was suspended in 60 mL of anhydrous acetonitrile (Aldrich, Sure/Seal) and water (41 μL, 2.3 mmol) added with magnetic stirring. The mixture was then gently warmed until the crystals of the starting material disappeared (ca. 5 min.). Two molar equivalents of redistilled dicyclohexylamine (913 μL) were then added. The immediately precipitating solid ([…]) was removed by vacuum filtration and the remaining solvent by rotary evaporation.

Structure (SMILES) | rate of hydrolysis kobs [s⁻¹]
O=C1OP(=O)(O)Oc2ccccc21 [V, 1-hydroxy-4,5-benz-2.6-dioxaphosphorinanone-(3)-1-oxide] | 1.7e-05

Same assay, conditions: neutral aqueous solution; relative to most compounds of the invention

Structure (SMILES) | spontaneous hydrolysis, in words
O=C(Cc1ccccc1)NCC(=O)OP(=O)(O)Oc1ccccc1 [XXXII] | more rapidly hydrolyzed
O=C(NCP(=O)(O)OC(=O)c1ccccc1)OCc1ccccc1 [XXXIII] | more rapidly hydrolyzed
O=C(Cc1ccccc1)OP(=O)(O)Oc1ccccc1 [Compound X] | shorter half-lives
